According to US20130209431A1, “ISOLATION AND CULTURE OF ERYTHROID PROGENITOR CELLS” (NEW YORK BLOOD CENTER, INC., priority 2012, published 2013):

Assays:
[1] = tested on: CD34+CD36−IL-3R+ cells (BFU-E cells); assay: Liquid culture of sorted BFU-E cells, cell numbers counted every day; assay type: cell-based, human
Description: (§1) Cells from day 5 cultures were used for sorting since at this time the cultured cells contain about equal numbers of BFU-E and CFU-E forming progenitors. 50×10^6 cells were suspended in 4 mL PBS/0.5% BSA in a 50 mL tube. Cells were blocked with 4% human AB serum for 10 min and subsequently incubated with PE-conjugated mouse anti-human CD34, FITC-conjugated mouse anti-human CD36 and PE-Cy7-conjugated mouse anti-human IL3-R on ice for 30 min in the dark. Cells were washed twice with 40 mL PBS/0.5% BSA and re-suspended in 5 mL PBS/0.5% BSA and stained with the viability marker 7-AAD on ice for 10 min in the dark. Sorting was performed on a MOFLO high-speed cell sorter (Beckman-Coulter). To sort BFU-E and CFU-E cells from primary human bone marrow, we first obtained mononuclear cells by Ficoll density gradient separation. We then obtained CD45^+ cells by positive selection using CD45 magnetic beads. The CD45^+ cells were stained with PE-conjugated mouse anti-human CD34, FITC-conjugated mouse anti-human CD36, PE-Cy7-conjugated mouse anti-human IL3-R, APC-cy7-conjugated mouse anti-human CD45 and APC-conjugated mouse anti-human CD71 for 30 min in the dark. Cells were washed twice with 40 mL PBS/0.5% BSA, re-suspended in 5 mL PBS/0.5% BSA and stained with the viability marker 7-AAD on ice for 10 min in the dark. Sorting was performed on a MOFLO high-speed cell sorter (Beckman-Coulter).
(§2) 0.1×10^6 of sorted BFU-E and the CFU-E cells were cultured in 1 ml of the first phase culture media (as described before) in the absence or presence of dexamethasone (1 μM) or lenalidomide (10 nM). The cell numbers were counted every day.

[2] = tested on: CD34−CD36+IL-3R− cells (CFU-E cells); assay: Liquid culture of sorted CFU-E cells, cell numbers counted every day; assay type: cell-based, human
Description: as §1, with “Cells were washed twice with 40 mL PBS/0.5% BSA, re-suspended in 5 mL PBS/0.5% BSA and stained with the viability marker 7-AAD on ice for 10 min in the dark. Sorting was performed on a MOFLO high-speed cell sorter (Beckman-Coulter).” left out
as §2

[3] = tested on: CFU-E cells; assay: Flow cytometry of GPA surface expression on cultured CFU-E cells (self-renewal); assay type: cell-based, human; conditions: cultured for 6 days in the presence of lenalidomide
Description: Cells taken from culture every day (day 1 to day 7) were analyzed for cell surface expression of CD34, IL-3R, CD36, CD71, CD45 and GPA using FACS canto flow cytometer (Becton Dickinson). Cultured cells (1×10^5) were suspended in PBS supplemented with 0.5% BSA and incubated with 4% human AB serum for 10 min on ice in the dark. The cells were subsequently incubated with fluorochrome-conjugated antibodies for 30 min at 4° C. and then washed once with PBS-0.5% BSA. The washed cells were then incubated for 10 min on ice in the dark with 7-AAD for identification of dead cells. All the reactions were performed under conditions of antibody saturation. Electronic compensation was done using unstained samples.
as §2
Next, the effect of lenalidomide on CFU-E cells was examined. In this population, the expression of GPA was determined since GPA becomes positive as CFU-E cells differentiate into proerythroblasts. […] These findings imply that lenalidomide promotes self-renewal of the CFU-E cells.

[4] = tested on: human CD34+ cells; conditions: cited from earlier work

C[C@@H]1C[C@H]2[C@@H]3CCC4=CC(=O)C=C[C@]4(C)[C@@]3(F)[C@@H](O)C[C@]2(C)[C@@]1(O)C(=O)CO [dexamethasone]
expansion of CD34+CD36−IL-3R+ cells in the presence versus absence of dexamethasone ([1]; dexamethasone 1 μM): ~20 fold
expansion of CD34+CD36−IL-3R+ cells ([1]; dexamethasone 1 μM, from 0.1×10^6 cells, untreated 70-fold): 1300 fold
cell number reached by CD34+CD36−IL-3R+ cells ([1]; dexamethasone 1 μM, start 0.1×10^6, untreated 7×10^6): 130×10^6
duration of continued proliferation of CD34+CD36−IL-3R+ cells ([1]; dexamethasone 1 μM, untreated 6 days): 9 days
reduction of BFU-E cell doubling time ([1]; in the presence of dexamethasone): 33%

Nc1cccc2c1CN(C1CCC(=O)NC1=O)C2=O (centres unmarked) [lenalidomide]
response of CD34−CD36+IL-3R− cell proliferation to treatment ([2]; dexamethasone 1 μM or lenalidomide 10 nM): enhanced the proliferation and expansion
increase of CD34−CD36+IL-3R− cell numbers every day ([2]; lenalidomide 10 nM, doubled every 24 hours in the absence): tripled
surface expression of GPA on CFU-E cells [3]: remains negative
effect on the proliferation of CD34+CD36−IL-3R+ cells ([1]; lenalidomide 10 nM): no effect
effect on BFU-E colony formation [4]: not BFU-E colony
effect on CFU-E colony formation [4]: promotes CFU-E colony formation
